Measurements from the METLIN SMRT retention time set (Domingo-Almenara et al. 2019).

assay: gradient 5% acetonitrile 3 min, to 50% in 2 min, to 85% in 15 min, held 3 min, 100 µL/min; settings: column: Zorbax Extend-C18 2.1 x 50 mm; eluents: water / acetonitrile, 0.1% formic acid
Summary of the method: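 Each retention time is based on an adduct peak selected computationally and verified by manual inspection. Measurements used HPLC–quadrupole time-of-flight mass spectrometry in positive and negative ionization mode on mixtures of ~100 pure standards. Chromatography ran on a Zorbax Extend-C18 column (2.1 × 50 mm, 1.8 μm) at 100 μL/min with water and acetonitrile, each containing 0.1% formic acid, and dead and dwell volumes of 40 μL and 900 μL.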

RP-LC retention time [s]	SMILES
608	CC(=O)Nc1ccc(S(=O)(=O)N2CCC(CN3CCC(C)CC3)CC2)cc1
912	CCOCCCNC(=O)c1ccc(OCc2nnc(C(=O)Nc3ccc(F)c(F)c3)s2)cc1
831	CCn1cc(S(=O)(=O)Nc2ccccc2OC)c2cccnc21
771	COC(=O)c1ncn2c1C(=O)N(Cc1ccc(F)cc1Cl)C(C)(C(=O)NCc1ccccc1)C2 (stereo unspecified)
653	O=C(NCc1ccco1)C(=O)NCC1OCCN1C(=O)c1ccc2c(c1)OCO2 (stereo unspecified)
596	CCc1cc(=O)n(CC(=O)Nc2ccc(F)cc2)c(N)n1
588	COCCNC(=O)NCCn1c(-c2ccc(C)cc2)nc2ccccc21
573	CCCNc1cc(N2CCC(CCC(=O)N3CCCN(c4ncccn4)CC3)CC2)ncn1
1100	COc1ccccc1-c1noc(Cn2cnc3c(cnn3-c3ccc(C)cc3)c2=O)n1
951	O=C(c1ccc(F)c(F)c1)N1CCc2nc(-c3ccccc3)ncc2C1
1150	Cc1ccc(NC(=O)Nc2nccn(-c3ccc(C)c(C)c3)c2=O)cc1C
702	COc1cccc(N2CCn3c2nc2c3c(=O)n(CC(=O)O)c(=O)n2C)c1
1080	CCn1c(=O)c2cc(C(=O)Nc3cccc(C(F)(F)F)c3)nn2c2ccccc21
934	CCCS(=O)(=O)c1nc2ccc(NS(=O)(=O)c3ccc(F)cc3F)cc2s1
1170	CCN1C(=O)C2(CCN(S(=O)(=O)c3ccc(C)c(Cl)c3)CC2)c2ccccc21
596	CC1CCN(CCCNC(=O)C2CCc3sc(C(=O)N4CCOCC4)cc3C2)CC1 (stereo unspecified)
660	Cc1nn(-c2ccc(N3CCCCC3)nn2)c(C)c1CCC(=O)NCCc1ccco1
590	COCCNc1ccc2nnc(C)n2n1
639	N#CCSc1nnc2ccc3ccccc3n12
1130	Cc1ccc(C(=O)Nc2cnc(-c3ccc(Cl)cc3)nc2)s1
676	CCOC(=O)C1CCN(S(=O)(=O)c2cccc(-c3cn4ccccc4n3)c2)CC1
655	O=c1ccn2c(n1)SC(c1ccccc1)C2 (stereo unspecified)
1040	Cc1ccc(S(=O)(=O)Cc2noc(-c3ccc(Cl)cc3)n2)cc1

RP-LC retention time [s]	SMILES
759	O=C(Nc1nnc(C2=COCCO2)o1)c1cc2cc([N+](=O)[O-])ccc2s1
937	COc1ccc(-c2noc(C3CCCN3C(=O)c3cc(F)cc(F)c3)n2)cc1OC (stereo unspecified)
887	COc1ccccc1NC(=O)c1cnc(-c2ccccc2)nc1-c1ccncc1
644	CCCN(Cc1ccc(OC)cc1)Cc1cc(=O)n2cccc(C)c2n1
654	Cc1nnc(NC(=O)CSc2nnc(-c3cccs3)o2)s1
638	COc1cc(Cl)ccc1C(=O)N1CCN(c2nc3ccncc3n(C)c2=O)CC1
706	COc1ccc2c(CCNC(=O)C(C)C)c[nH]c2c1
569	Cc1ccc(NC(=O)CN2CCC(C(=O)N3CCN(C(=O)c4ccco4)CC3)CC2)cc1
853	COc1cccc(C(=O)N2CCN(c3ccc(=O)n(-c4ccc(Cl)cc4)n3)CC2)c1
971	Cc1cc(C)n(CC(=O)N2CCN(c3ccccc3F)CC2)c1-c1nc(C2CC2)no1
831	CC(C)(C)C(=O)N1CCOC(c2ccccc2)C1 (stereo unspecified)
726	Cc1ccc2nc(-c3ccc(N(C)C)cc3)c(Nc3ccc4c(c3)OCCO4)n2c1
828	CC(C)N1C(=O)c2cccnc2Sc2cc(NC(=O)C(C)(C)C)ccc21
775	COc1cccc(S(=O)(=O)N2CCC(n3cnnc3-c3ccccc3)CC2)c1
624	Nc1nc(N2CCN(C3CCCCC3)CC2)ncc1C(=O)Nc1ccccc1
642	O=C(C1=CCN(Cc2cccc(F)c2)CC1)N1CCN(c2ccccc2)CC1
805	O=C(Cc1csc2nc(-c3ccccc3)cn12)Nc1cccc(F)c1
587	CN1C(=O)[C@H]2CN(Cc3ccc(F)cc3F)C[C@H]2C1=O
662	CNC(=O)c1cccc(C(=O)N(C)c2ccccc2)n1
1130	Cc1ccc(C)c(-n2ccn(Cc3nc(-c4ccc(C(C)(C)C)cc4)no3)c(=O)c2=O)c1
789	O=C(Nc1cnc(N2CCOCC2)nc1)c1cc(F)cc(F)c1
585	O=C(CCn1cnnn1)N1CCC2(CC1)CC(CC(=O)N1CCOCC1)CCO2 (stereo unspecified)
643	O=C(c1c2c(nc3ccccc13)C(=O)N(C1CCCCC1)C2)N1CCN(c2ccccn2)CC1

RP-LC retention time [s]	SMILES
807	CS(=O)(=O)N1CCC(C(=O)NCc2ccccc2)Oc2ccccc21 (stereo unspecified)
698	Cc1ccc(OCC(=O)Nc2cc3[nH]c(=O)[nH]c3cc2C)cc1
807	CC(C)NC(=O)Cn1cccc(-c2nc(-c3ccc(Cl)cc3)no2)c1=O
1050	Cc1ccc(NC(=O)N2CCCC2c2nc(-c3ccc(F)cc3F)no2)cc1C (stereo unspecified)
698	COc1ccc(-c2c(C(=O)N(C)Cc3ccco3)nc3ccccn23)cc1
624	Cc1noc(-c2ccc(-n3ncc(C(=O)N4CCN(c5ccccn5)CC4)c3C)nc2)n1
543	CC(=O)N1CCc2nn(C)c(=O)n2CC1
621	COc1ccccc1N1CCN(CC(=O)NC2CCSC2=O)C1=O (stereo unspecified)
663	N#Cc1c(NC(=O)C2Cc3ccccc3C(=O)O2)sc2c1CCCC2 (stereo unspecified)
1200	Cc1ccc(-c2noc(CSc3nc4cc5c(cc4c(=O)n3-c3ccc(F)cc3)OCO5)n2)cc1
847	Cc1ccc(N2CCC(NC(=O)c3cccc(C#N)c3)C2=O)cc1C (stereo unspecified)
562	CC(=O)Nc1ccc(CCc2nc3ccc(C(=O)NCC4CCCO4)cc3[nH]2)cc1 (stereo unspecified)
602	Cc1nc(Nc2ccc(Cl)cn2)sc1C(=O)NCCN(C)C
686	O=C1NCCCn2cc(S(=O)(=O)NCc3ccc(F)cc3Cl)cc21
850	COc1ccc(NC(=O)C(C)C2CCN(C(=O)Nc3ccccc3)CC2)cc1Cl (stereo unspecified)
564	O=C(NCc1ccccn1)c1cccc(N2CCNC(c3ccccc3)C2)n1 (stereo unspecified)
1030	Cc1cc(C(=O)Nc2ccc(N3CCOCC3)cc2)nc2cc(-c3ccsc3)nn12
667	Cc1ccc(NC(=O)N(C)CC2CCOC2)cc1 (stereo unspecified)
965	COc1ccc(CN2C(=O)CC(c3ccc(OC)cc3)CC2=O)cc1
1030	Brc1ccc(-c2noc(CSc3nccn3-c3ccccc3)n2)cc1
1130	Cc1ccc(-c2nc(-c3ccc(-c4noc(CNC(=O)c5ccco5)n4)cc3)cs2)s1
706	CCc1nc(N2CCC(C(=O)NCc3ccc(OC)cc3OC)CC2)c2c(C)scc2n1
822	COc1ccc(S(=O)(=O)Nc2cccn3c(C4CCC4)nnc23)cc1Cl

RP-LC retention time [s]	SMILES
639	Cn1ccnc1SCC(=O)Nc1nc(-c2ccc(F)cc2)cs1
844	Cc1ccc(NC(=O)C2CCCN2S(=O)(=O)c2cc3c(cc2Cl)NC(=O)CO3)cc1F (stereo unspecified)
773	CN(C)S(=O)(=O)c1ccc(N)c([N+](=O)[O-])c1
738	Cc1ccccc1S(=O)(=O)N1CC[C@@H]2CN(c3cnccn3)[C@@H]2C1
712	CC(C)n1cc(C(=O)O)c(S(=O)(=O)N2CCCC2)n1
797	Cc1cc2c(c(=O)n(-c3ccccc3)c(=O)n2CC(=O)Nc2ccc(F)cc2)n1C
612	Cc1ccc(NC(=O)CN2C(=O)COc3ccc(C(=O)N(C)C)cc32)nc1
734	CC(=O)c1cccc(NC(=O)c2nc3nc(C)cc(C(F)F)n3n2)c1
1280	Cc1nc(-c2cccc(-c3noc(COc4ccc(Cl)cc4)n3)c2)cs1
584	CCn1cc(C)c(C(=O)O)c1CC(=O)NCc1cccnc1
564	CC(C)CN1CCN(C(=O)C2CCCN(c3cnc4nccnc4c3)C2)CC1 (stereo unspecified)
976	CCc1noc(-c2nc(-c3ccc(OC)c(OC)c3)no2)n1
718	CCN1CCCCc2cc(C(=O)NCC3CCN(CC(C)C)C3)sc21 (stereo unspecified)
830	CCn1cnc(S(=O)(=O)N2CCCC(C(=O)Nc3ccc(F)c(Cl)c3)C2)c1 (stereo unspecified)
674	CN(C)c1ccc(NC(=O)Cn2nc3c(Oc4ccc(Cl)cc4)nccn3c2=O)cc1
873	Cc1ccc(-c2cn3ccn(-c4ccc(F)cc4)c(=O)c3n2)c(C)c1
836	O=C(NC1CC1)c1ccc(OCC2CCN(C(=O)c3ccccc3C(F)(F)F)CC2)cc1
974	COc1ccc(Cl)cc1NC(=O)Cn1nc2cc(-c3ccccc3)nc(C)n2c1=O
511	CCN(CC)c1nc(C(=O)NCc2ccncc2)nc2nc(C)cc(C)c12
867	CC(C)c1noc(C2(NC(=O)c3ccoc3)CCCCC2)n1

SMILES	RP-LC retention time [s]
CCN1CCN(C(=O)Cc2c(C(=O)O)c(C)cn2CC)CC1	568
CCN(CC)C(=O)c1ccc2c(c1)N(CC(=O)N1CCCC1)C(=O)C1CCCCN21 (stereo unspecified)	753
